This is an account of results in patent US20090149440A1, “NOVEL PYRIDONECARBOXYLIC ACID DERIVATIVES OR SALTS THEREOF” (priority 2004, published 2009).

Converted amounts (≈) assume the structure as drawn.

Broadly, the melting point is the temperature of the solid-liquid transition. The MIC is the lowest concentration that inhibits growth of the organism. As usually defined, the Cmax is the maximum level reached in the sampled fluid or tissue. The Tmax is the time from dosing to the highest level. A word on the half-life: it is how long it takes for the measured level to halve.

One data set deals with M. luteus IFO12708. Description: Antibacterial activity, minimum inhibitory concentration (standard method of the Japanese Society of Chemotherapy). The following applies: Micrococcus luteus. The format is cell-based. As for the experimental part:
(§1) Minimum inhibitory concentration (MIC: μg/mL) of the compounds shown in Table 1 was determined according to the standard method of the Japanese Society of Chemotherapy (CHEMOTHERAPY 29(1), 76, 1981).

For the next data set, the system named is S. haemolytlcus 67. The description is as above. It counts as cell-based. Here is the method: as §1
A further data set deals with MRSA W44. The data set is described as above. Particulars: Staphylococcus aureus. It counts as cell-based. As for the experimental part:
as §1

The test system of a further data set is P. mirabilis IFO3849. The data set is described as above. The following applies: Proteus mirabilis. It counts as cell-based. As for the experimental part: as §1
The test system of the next data set is human serum proteins. Briefly: Binding rate to proteins by ultrafiltration method. The following applies: 5 μg/mL, 37° C. for 30 minutes. The format is in vitro ADME. As for the experimental part: Binding rate to proteins of the compounds shown in Table 3 was determined by ultrafiltration method. Specifically, a 0.5 mg/mL DMSO solution of each compound was diluted with human serum or a 0.4% phosphate buffer (pH: 7.4 containing 0.5% NaCl) to thereby prepare a 5 μg/mL solution. The human serum solution was incubated at 37° C. for 30 minutes and centrifugally filtrated through a filter (pore size: 0.22 μm). A portion of the serum filtrate and the phosphate buffer solution were applied to an HPLC system, and the peak area of the compound was measured. Binding rate of each compound to human serum proteins was calculated by the following equation 1: Binding rate (%)=(A−B)×100/A (equation 1) A: Peak area (in phosphate buffer) B: Peak area (in serum filtrate)

Another data set deals with female ICR mice. Description: Phototoxicity test: ear abnormalities after UV irradiation. It counts as in vivo. On the set-up: key to Phototoxicity score: normal (0 point); slight erythema (score 1); medium erythema (score 2); serious erythema or edema (score 3). The following applies: 40 mg/10 mL/kg intravenously, UV 320 to 400 nm for four hours. Here is the method: Each test compound was intravenously administered (40 mg/10 mL/kg) to female ICR mice (5- to 6-weeks old), and the mice were irradiated with UV-rays (320 to 400 nm, 1.8 mW/cm^2/sec) for four hours. Abnormalities induced in the ear of each mouse were observed immediately after (0 hour), 24 hours after, and 48 hours after the irradiation. The abnormality was evaluated according to the following criteria: normal (0 point), slight erythema (score 1), medium erythema (score 2), and serious erythema or edema (score 3).

Data set [1] in a line: Pharmacokinetics: absorbability after oral administration, serum level. Particulars: for Cmax / Tmax / half-life / AUC: dog, male beagle dogs, fasted, 10 mg/kg oral, 0.5% methylcellulose suspension, serum; for AUC: read-out: AUCO to 8 h. The format is in vivo, dogs. Here is the method: Absorbability of the compounds shown in Table 4 was investigated in dogs. Specifically, a 0.5% methylcellulose suspension of each test compound (10 mg/kg) was forcedly orally administered to 2- to 4-years old male beagle dogs which had been fasted for 16 to 17 hours. The blood was collected from each dog at 0.25, 0.5, 1, 2, 4, 6, 8, and 24 hours after the administration, and the serum level of the test compound was determined to evaluate absorbability of the compound.

As to `CC(C)NC1CN(c2c(F)cc3c(=O)c(C(=O)O)cn(-c4nc(N)c(F)cc4F)c3c2Br)C1.Cl`, the melting point was ≥ 210 °C (dec.).
Consider `CC(C)NC1CN(c2c(F)cc3c(=O)c(C(=O)O)cn(-c4nc(N)c(F)cc4F)c3c2Br)C1` [compound 1, 1-(6-Amino-3,5-difluoropyridin-2-yl)-8-bromo-6-fluoro-7-(3-isopropylaminoazetidin-1-yl)-4-oxo-1,4-dihydroquinolin-3-carboxylic acid], for which the minimum inhibitory concentration (MIC) with M. luteus IFO12708 was determined as 0.12 µg/mL (≈ 0.228 µM); against S. haemolytlcus 67 it was 4 µg/mL (≈ 7.6 µM); in the data set on MRSA W44, 0.03 µg/mL (≈ 0.057 µM); in the data set on P. mirabilis IFO3849, 0.25 µg/mL (≈ 0.475 µM). The “Binding rate to proteins” value in the data set on human serum proteins came to 64.0%. Moreover, the Phototoxicity incidence with female ICR mice (0 hour after irradiation), in the data set with female ICR mice (24 hours after irradiation) and in the data set with female ICR mice (48 hours after irradiation) was 0/3 throughout. The Phototoxicity score in the data set on female ICR mice (0 hour after irradiation), in the data set with female ICR mice (24 hours after irradiation) and with female ICR mice (48 hours after irradiation) was 0 in each case.
For the molecule `CNC1CN(c2c(F)cc3c(=O)c(C(=O)O)cn(-c4nc(N)c(F)cc4F)c3c2Br)C1` [compound 1, 1-(6-amino-3,5-difluoropyridin-2-yl)-8-bromo-6-fluoro-7-(3-methylaminoazetidin-1-yl)-4-oxo-1,4-dihydroquinolin-3-carboxylic acid], the MIC was found to be 0.25 µg/mL (≈ 0.502 µM) in the data set with M. luteus IFO12708, 8 µg/mL (≈ 16.1 µM) with S. haemolytlcus 67, 0.06 µg/mL (≈ 0.12 µM) against MRSA W44 and 0.5 µg/mL (≈ 1 µM) against P. mirabilis IFO3849. In addition, the “Binding rate to proteins” value with human serum proteins stood at 49.0%. Moreover, the Phototoxicity incidence in the data set with female ICR mice (0 hour after irradiation), in the data set on female ICR mice (24 hours after irradiation) and with female ICR mice (48 hours after irradiation) was 0/3 each time. Moreover, the Phototoxicity score with female ICR mice (0 hour after irradiation), in the data set with female ICR mice (24 hours after irradiation) and in the data set on female ICR mice (48 hours after irradiation) was 0 in each case.
Regarding `CC(C)NC1CN(c2c(F)cc3c(=O)c(C(=O)O)cn(-c4nc(N)c(F)cc4F)c3c2Cl)C1` [compound 2, 1-(6-Amino-3,5-difluoropyridin-2-yl)-8-chloro-6-fluoro-7-(3-isopropylaminoazetidin-1-yl)-4-oxo-1,4-dihydroquinolin-3-carboxylic acid], the melting point was ≥ 205 °C (dec.).
As to `CCc1c(N2CC(NC(C)C)C2)c(F)cc2c(=O)c(C(=O)O)cn(-c3nc(N)c(F)cc3F)c12` [compound 3, 1-(6-Amino-3,5-difluoropyridin-2-yl)-6-fluoro-7-(3-isopropylaminoazetidin-1-yl)-8-ethyl-4-oxo-1,4-dihydroquinolin-3-carboxylic acid], the melting point was ≥ 238 °C (dec.). Moreover, the “Binding rate to proteins” value in the data set with human serum proteins is reported as 44.3%.
On to `CNC1CN(c2c(F)cc3c(=O)c(C(=O)O)cn(-c4nc(N)c(F)cc4F)c3c2Br)C1.O=C(O)/C=C\C(=O)O` [compound 3, 1-(6-amino-3,5-difluoropyridin-2-yl) 8-bromo-6-fluoro-7-(3-methylaminoazetidin-1-yl)-4-oxo-1,4-dihydroquinolin-3-carboxylic acid maleic acid salt], for which, in data set [1], the maximum concentration (Cmax) was determined as 1490 ng/mL, the time to peak (Tmax) stood at 1 h, the half-life is 3.2 h and the AUC stood at 7600 ng·h/mL.
Turning to `CC(C)(C)NC1CN(c2c(F)cc3c(=O)c(C(=O)O)cn(-c4nc(N)c(F)cc4F)c3c2Br)C1` [compound 4, 1-(6-Amino-3,5-difluoropyridin-2-yl)-8-bromo-7-(3-tert-butylaminoazetidin-1-yl)-6-fluoro-4-oxo-1,4-dihydroquinolin-3-carboxylic acid], the melting point was ≥ 225 °C (dec.). The “Binding rate to proteins” value in the data set with human serum proteins came to 44.9%.
Regarding `CCNC1CN(c2c(F)cc3c(=O)c(C(=O)O)cn(-c4nc(N)c(F)cc4F)c3c2Br)C1.O=C(O)/C=C\C(=O)O` [compound 4, 1-(6-amino-3,5-difluoropyridin-2-yl) 8-bromo-7-(3-ethylaminoazetidin-1-yl)-6-fluoro-4-oxo-1,4-dihydroquinolin-3-carboxylic acid maleic acid salt], in data set [1], the Cmax is 3730 ng/mL, the time of peak concentration (Tmax) came to 1 h, the half-life was 4.3 h and the AUC was found to be 17500 ng·h/mL.
Consider `CC(C)(C)NC1CN(c2c(F)cc3c(=O)c(C(=O)O)cn(-c4nc(N)c(F)cc4F)c3c2Cl)C1` [compound 5, 1-(6-Amino-3,5-difluoropyridin-2-yl)-7-(3-tert-butylaminoazetidin-1-yl)-8-chloro-6-fluoro-4-oxo-1,4-dihydroquinolin-3-carboxylic acid], for which the melting point was ≥ 250 °C (dec.).
For `Cc1c(N2CC(NC(C)(C)C)C2)c(F)cc2c(=O)c(C(=O)O)cn(-c3nc(N)c(F)cc3F)c12` [compound 6, 1-(6-Amino-3,5-difluoropyridin-2-yl)-7-(3-tert-butylaminoazetidin-1-yl)-6-fluoro-8-methyl-4-oxo-1,4-dihydroquinolin-3-carboxylic acid], the melting point was ≥ 193 °C (dec.). The “Binding rate to proteins” value with human serum proteins is reported as 26.8%.
For `CNc1nc(-n2cc(C(=O)O)c(=O)c3cc(F)c(N4CC(NC(C)C)C4)c(C)c32)c(F)cc1F` [compound 7, 1-(3,5-Difluoro-6-methylaminopyridin-2-yl)-6-fluoro-7-(3-isopropylaminoazetidin-1-yl)-8-methyl-4-oxo-1,4-dihydroquinolin-3-carboxylic acid], the melting point is ≥ 218 °C (dec.).
For the molecule `CCNc1nc(-n2cc(C(=O)O)c(=O)c3cc(F)c(N4CC(NC(C)C)C4)c(C)c32)c(F)cc1F` [compound 8, 1-(6-Ethylamino-3,5-difluoropyridin-2-yl)-6-fluoro-7-(3-isopropylaminoazetidin-1-yl)-8-methyl-4-oxo-1,4-dihydroquinolin-3-carboxylic acid], the melting point was ≥ 202 °C (dec.).
As to `CNc1nc(-n2cc(C(=O)O)c(=O)c3cc(F)c(N4CC(NC(C)C)C4)c(Cl)c32)c(F)cc1F` [compound 9, 8-Chloro-1-(3,5-difluoro-6-methylaminopyridin-2-yl)-6-fluoro-7-(3-isopropylaminoazetidin-1-yl)-4-oxo-1,4-dihydroquinolin-3-carboxylic acid], the melting point is ≥ 244 °C (dec.).
As to `CC(C)Nc1nc(-n2cc(C(=O)O)c(=O)c3cc(F)c(N4CC(NC(C)C)C4)c(Cl)c32)c(F)cc1F` [compound 10, 8-Chloro-1-(3,5-difluoro-6-isopropylaminopyridin-2-yl)-6-fluoro-7-(3-isopropylaminoazetidin-1-yl)-4-oxo-1,4-dihydroquinolin-3-carboxylic acid], the melting point is ≥ 248 °C (dec.).
In the case of `CNc1nc(-n2cc(C(=O)O)c(=O)c3cc(F)c(N4CC(NC(C)C)C4)c(Br)c32)c(F)cc1F` [compound 11, 8-Bromo-1-(3,5-difluoro-6-methylaminopyridin-2-yl)-6-fluoro-7-(3-isopropylaminoazetidin-1-yl)-4-oxo-1,4-dihydroquinolin-3-carboxylic acid], the melting point was ≥ 220 °C (dec.).
In the case of `CC(C)NC1CN(c2c(F)cc3c(=O)c(C(=O)O)cn(-c4nc(N)c(F)cc4F)c3c2Br)C1.O=C(O)/C=C\C(=O)O` [compound 12, 1-(6-amino-3,5-difluoropyridin-2-yl)-8-bromo-6-fluoro-7-(3-isopropylaminoazetidin-1-yl)-4-oxo-1,4-dihydroquinolin-3-carboxylic acid maleic acid salt], the “Binding rate to proteins” value in the data set with human serum proteins is 64.0%. Besides, in data set [1], the maximum concentration (Cmax) amounted to 5250 ng/mL, the time to peak (Tmax) was determined as 1 h, the half-life was 5.8 h and the AUC came to 30900 ng·h/mL. For the same molecule, the “Pharmacokinetics (in words)” value in data set [1] (dogs, oral, compared with comparative compounds 3 and 4) was “remarkably improved”.
Take `CC(C)NC1CN(c2c(F)cc3c(=O)c(C(=O)O)cn(-c4nc(N)c(F)cc4F)c3c2Br)C1.CS(=O)(=O)O` [compound 13, 1-(6-Amino-3,5-difluoropyridin-2-yl)-8-bromo-6-fluoro-7-(3-isopropylaminoazetidin-1-yl)-4-oxo-1,4-dihydroquinolin-3-carboxylic acid methanesulfonic acid salt]: the melting point was ≥ 224 °C (dec.).
